Measured values from paper PMC2813745, “A novel inhibitor of the PI3K/Akt pathway based on the structure of inositol 1,3,4,5,6-pentakisphosphate” (British Journal of Cancer, 2010).

Legend:
MAPK9 (JNK2) = MAPK9 (JNK2) (Homo sapiens, UniProt P45984); assay: SelectScreen kinase profiling: MAPK9; assay type: biochemical; conditions: [ATP] 100 µM
Method: (§1) Effect of the indicated compounds on the activity of various kinases was assessed by SelectScreen Kinase Profiling Service (Invitrogen-Life Technologies, Paisley, UK). Assays were performed using 1 μM of the tested compounds and ATP concentration as indicated in the corresponding tables. In the case of […] a screen using 10 μM of the compound was also carried out, as indicated in the corresponding table.

SKBR3 [1] = assay: Cell survival by cell counting, SKBR3; assay type: cell-based, human; conditions: SKBR3, 72 h
Method: (§2) Cells seeded in a 24-well plate were treated with the indicated compounds in serum free DMEM or DMEM containing 0.5% FBS (PC3). After 72 h, the number of surviving cells was assessed by manual cell counting or by using the cell counter CDA-500 (Sysmex, Milton Keynes, UK). Alternatively, after 48 h, the number of apoptotic cells was assessed by acridine orange/ethidium bromide assay as described ([Piccolo et al, 2004]; [Maffucci et al, 2005]). SRB test was carried out in SKOV-3 and PC3 seeded in 96-well plate (3800 cells per well or 5800 cells per well, respectively) after 72 h of treatment as described ([Cappella et al, 2001]).
(§3) The number of surviving cells was assessed by cell counting. Data are mean±s.e. of n=4 (A) and n=2 (B) independent experiments. ^**=P<0.05. […] The number of apoptotic cells was assessed by acridine orange/ethidium bromide assay. Data are mean±s.e. of three independent experiments. ^**=P<0.05.

MAPK3 (ERK1) = MAPK3 (ERK1) (Homo sapiens, UniProt P27361); assay: SelectScreen kinase profiling: MAPK3; assay type: biochemical; conditions: [ATP] 50 µM
Method: as §1

ASPC1 = assay: Cell survival by cell counting, ASPC1; assay type: cell-based, human; conditions: ASPC1, 72 h
Method: as §2
(§4) The number of surviving cells was assessed by cell counting. Data are mean±s.e. of n=3 (A), n=6 (B), n=3 (C) and n=4 (D) independent experiments carried out in duplicate. ^*=P<0.01; ^**=P<0.05. […] After 72 h the number of surviving cells was assessed by SRB assay. Data are mean±s.e. of n=2 independent experiments.
(§5) Data are mean±s.e. of n=4 independent experiments carried out in duplicate. […] Data are mean±s.e. of n=5 independent experiments carried out in duplicate. […] In all cases (A–D), cells were treated for 72 h and the number of surviving cells was assessed by cell counting. […] In all cases (E, F), cells were treated for 72 h and the number of surviving cells was assessed by SRB assay and data are mean±s.e. of two experiments carried out in quadruplicate.

MCF7 = assay: Cell survival by cell counting, MCF7; assay type: cell-based, human; conditions: MCF7, 72 h, 20 nM 4-OH Tamoxifen, 50 μM 2-O-Bn-InsP5 alone or in combination
Method: as §2
Data are mean±s.e. of n=4 independent experiments carried out in duplicate. […] Data are mean±s.e. of n=5 independent experiments carried out in duplicate. […] Data are mean±s.e. of n=6 independent experiments carried out in duplicate. […] Data are mean±s.e. of n=2 independent experiments carried out in duplicate. In all cases (A–D), cells were treated for 72 h and the number of surviving cells was assessed by cell counting. […] In all cases (E, F), cells were treated for 72 h and the number of surviving cells was assessed by SRB assay and data are mean±s.e. of two experiments carried out in quadruplicate.

SKOV-3 = assay: Acridine orange/ethidium bromide apoptosis assay, SKOV-3; assay type: cell-based, human; conditions: SKOV-3, acridine orange/ethidium bromide assay
Method: as §2, §3

PC3 = assay: Cell survival by cell counting, PC3; assay type: cell-based, human; conditions: PC3, 72 h
Method: as §2, §4, §5

[2] = test system: Akt phosphorylation in ASPC1; assay: Akt activation by western blot in ASPC1; assay type: cell-based, human; conditions: ASPC1, results not shown
[3] = test system: Akt phosphorylation at Ser473 and Thr308 in PC3 tumours; assay: Akt phosphorylation in excised tumours (western blot); assay type: in vivo, nude athymic CD-1 nu/nu mice; conditions: single dose 50 mg kg^−1, tumours excised 24 h after treatment
Method: Animals were killed 24 h after treatment and tumour samples were collected and snap frozen. Frozen specimens of tumour tissue were homogenised with a Polytron homogeniser in a lysis buffer (ratio 1 : 1 w/v) containing 50 mM Tris-HCl (pH 7.4), 5 mM EDTA, 0.1% Nonidet NP-40, 250 mM NaCl, 50 mM NaF and proteases and phosphatase inhibitors. After centrifugation at 13 000 r.p.m. for 10 min at 4°C, 80 μg of protein was separated on SDS–PAGE and transferred to a polyvinylidene difluoride membrane (Millipore, MA, USA). Membranes were probed with the indicated antibodies.
The inositol compounds (12.5–25–50 mg kg^−1 day^−1) and vehicle (water) were given daily by intraperitoneal (i.p.) injections for 14 consecutive days (days 15–28). Tumour size was assessed twice weekly. (A, B) Tumour growth in 2-O-Bn-InsP5-treated mice (A) and InsP5-treated mice (B) compared with control group measured for the duration of the experiment. Results are expressed as mean±s.e. (C) Top: Table showing all P-values for the indicated doses of 2-O-Bn-InsP5 compared to controls at the indicated days of treatment (NS=not significant). […] The percentage of tumour weight inhibition (TWI%), the tumour growth delay (T−C) and the log cell kill (LCK) were calculated as described in the MATERIALS AND METHODS section. […] Phosphorylation of Akt at its residues Ser473 and Thr308 was assessed by using specific antibodies. […]

AKT3 (PKBγ) = AKT3 (PKBγ) (Homo sapiens, UniProt Q9Y243); assay: SelectScreen kinase profiling: AKT3; assay type: biochemical; conditions: [ATP] 100 µM
Method: as §1

[4] = test system: Akt phosphorylation at Ser473 and Thr308 in SKOV-3; assay: Akt activation by western blot in SKOV-3; assay type: cell-based, human; conditions: SKOV-3, 8 h or 24 h, serum free medium
Method: (§6) Akt activation was assessed by monitoring phosphorylation at its residues Ser473 and Thr308. Membranes were then stripped and re-probed with the indicated antibodies.

MDA-MB-468 = assay: Cell survival by cell counting, MDA-MB-468; assay type: cell-based, human; conditions: MDA-MB-468, 72 h
Method: as §2, §4, §5

SKBR3 [5] = assay: Acridine orange/ethidium bromide apoptosis assay, SKBR3; assay type: cell-based, human
Method: as §2, §3

[6] = test system: Akt phosphorylation in PC3; assay: Akt activation by western blot in PC3; assay type: cell-based, human; conditions: PC3, 24 h, medium containing 0.5% FBS
Method: as §6

BxPc-3 = assay: Cell survival by cell counting, BxPc-3; assay type: cell-based, human; conditions: BxPc-3, 72 h
Method: as §2, §4

CAMK1 (CaMK1) = CAMK1 (CaMK1) (Homo sapiens, UniProt Q14012); assay: SelectScreen kinase profiling: CAMK1; assay type: biochemical; conditions: 10 µM compound; [ATP] 100 µM
Method: as §1

Chain of AKT3 (PKBγ) (Q9Y243 whole entry): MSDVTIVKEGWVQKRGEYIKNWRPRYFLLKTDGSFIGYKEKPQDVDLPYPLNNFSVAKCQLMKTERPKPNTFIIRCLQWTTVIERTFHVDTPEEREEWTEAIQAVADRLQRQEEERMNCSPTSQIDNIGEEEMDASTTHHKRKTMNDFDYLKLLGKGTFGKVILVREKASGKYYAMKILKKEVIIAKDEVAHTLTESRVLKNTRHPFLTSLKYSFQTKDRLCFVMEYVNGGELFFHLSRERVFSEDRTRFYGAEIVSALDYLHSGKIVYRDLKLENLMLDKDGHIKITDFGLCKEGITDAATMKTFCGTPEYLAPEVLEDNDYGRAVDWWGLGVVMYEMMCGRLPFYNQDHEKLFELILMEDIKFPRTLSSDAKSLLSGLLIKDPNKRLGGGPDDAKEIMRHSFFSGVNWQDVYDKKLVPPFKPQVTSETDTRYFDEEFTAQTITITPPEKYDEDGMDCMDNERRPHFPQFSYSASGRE
Chain of MAPK3 (ERK1) (P27361 whole entry): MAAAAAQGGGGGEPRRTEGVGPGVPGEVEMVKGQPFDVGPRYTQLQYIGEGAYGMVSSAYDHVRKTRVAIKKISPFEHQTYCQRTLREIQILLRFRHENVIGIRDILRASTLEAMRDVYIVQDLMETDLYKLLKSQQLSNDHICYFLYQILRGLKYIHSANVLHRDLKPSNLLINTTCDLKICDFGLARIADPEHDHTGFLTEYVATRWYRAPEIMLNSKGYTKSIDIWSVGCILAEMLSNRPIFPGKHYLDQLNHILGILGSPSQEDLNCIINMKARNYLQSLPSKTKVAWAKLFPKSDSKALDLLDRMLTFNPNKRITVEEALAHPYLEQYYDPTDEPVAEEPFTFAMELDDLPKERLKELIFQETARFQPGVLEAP
Chain of MAPK9 (JNK2) (P45984 whole entry): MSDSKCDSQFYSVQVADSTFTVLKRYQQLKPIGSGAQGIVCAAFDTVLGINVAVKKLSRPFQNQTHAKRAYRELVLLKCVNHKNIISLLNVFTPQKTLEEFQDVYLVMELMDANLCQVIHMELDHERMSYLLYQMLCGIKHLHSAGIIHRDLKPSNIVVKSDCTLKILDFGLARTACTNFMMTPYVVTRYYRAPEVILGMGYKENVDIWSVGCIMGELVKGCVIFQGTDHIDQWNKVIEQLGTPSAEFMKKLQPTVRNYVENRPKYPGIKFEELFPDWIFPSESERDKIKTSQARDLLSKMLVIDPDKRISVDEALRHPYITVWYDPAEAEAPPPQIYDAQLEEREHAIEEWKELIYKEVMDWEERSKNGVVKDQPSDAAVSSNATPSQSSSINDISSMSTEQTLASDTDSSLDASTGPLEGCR
Chain of CAMK1 (CaMK1) (Q14012 whole entry): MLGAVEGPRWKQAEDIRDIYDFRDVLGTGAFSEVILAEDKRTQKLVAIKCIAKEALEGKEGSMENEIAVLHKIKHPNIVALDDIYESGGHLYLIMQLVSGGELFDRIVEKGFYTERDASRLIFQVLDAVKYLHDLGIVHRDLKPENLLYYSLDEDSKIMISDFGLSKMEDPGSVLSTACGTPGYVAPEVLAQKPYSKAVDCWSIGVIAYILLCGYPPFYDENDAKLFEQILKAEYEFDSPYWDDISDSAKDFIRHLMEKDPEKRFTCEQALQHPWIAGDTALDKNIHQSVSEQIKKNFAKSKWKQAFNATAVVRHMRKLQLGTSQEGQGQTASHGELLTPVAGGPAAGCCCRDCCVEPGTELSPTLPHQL

SMILES: O=P(O)(O)OC1C(OCc2ccccc2)C(OP(=O)(O)O)C(OP(=O)(O)O)C(OP(=O)(O)O)C1OP(=O)(O)O (stereo not drawn) [2-O-Bn-InsP5, 2-O-benzyl-myo-inositol 1,3,4,5,6-pentakisphosphate]
- inhibition at 1 µM (MAPK9 (JNK2); 1 µM compound): -1%
- number of surviving cells (SKBR3 [1]): strongly reduced the number of surviving
- inhibition at 1 µM (MAPK3 (ERK1); 1 µM compound): 19%
- number of surviving cells (ASPC1): more active than InsP5 at almost all concentrations tested
- number of surviving cells (MCF7): little effect
- percentage of apoptotic cells (SKOV-3): percentage of apoptotic cells was higher in 2-O-Bn-InsP5-treated compared with InsP5-treated
- number of surviving cells (PC3): stronger activity of 2-O-Bn-InsP5 compared with InsP5
- Akt phosphorylation [2]: able to block Akt phosphorylation
- Akt phosphorylation at residue Ser473 in tumours [3]: markedly reduced Akt phosphorylation at its residue Ser473 in all 2-O-Bn-InsP5-treated mice
- Akt phosphorylation at residue Thr308 in tumours [3]: clear inhibition of Akt phosphorylation at its residue Thr308 was detected in five out of seven
- inhibition at 1 µM (AKT3 (PKBγ); 1 µM compound): 10%
- Akt phosphorylation at residue Ser473 [4]: inhibited Akt phosphorylation at its residue Ser473 more efficiently than InsP5 in SKOV-3, being already active after 8 h of treatment and at a concentration of 20 μM
- Akt phosphorylation at residue Thr308 [4]: Inhibition of Akt phosphorylation at residue Thr308 was also detected
- number of surviving cells (MDA-MB-468): stronger activity of 2-O-Bn-InsP5 compared with InsP5
- percentage of apoptotic cells (SKBR3 [5]): percentage of apoptotic cells was higher in 2-O-Bn-InsP5-treated compared with InsP5-treated
- Akt phosphorylation [6]: able to block Akt phosphorylation
- number of surviving cells (BxPc-3): more potent than InsP5 at a concentration of 50 μM

SMILES: O=P(O)(O)OC1C(O)C(OP(=O)(O)O)C(OP(=O)(O)O)C(OP(=O)(O)O)C1OP(=O)(O)O (stereo not drawn) [InsP5, inositol 1,3,4,5,6-pentakisphosphate]
- inhibition at 10 µM (CAMK1 (CaMK1)): -46%
- inhibition at 10 µM (MAPK9 (JNK2); 10 µM compound): 23%
- inhibition at 10 µM (MAPK3 (ERK1); 10 µM compound): 3%
- inhibition at 10 µM (AKT3 (PKBγ); 10 µM compound): 10%
